The values that follow are results of earlier work, collected in patent publication US20160235839A1, “CALCIUM FLUORIDE COMPOSITIONS” (priority 2013, published 2016).

The test system of this series is chicken red blood cells. As to conditions: no cholesterol.

QS21: the “Hemolytic activity of QS21 by itself” value is reported as “too hemolytic”.
